Consider five compounds from patent publication US8822441B2, “Ecdysterone synthesis derivative, preparation method and use thereof” (priority 2010, dated 2014).

The test system of one data set is HepG2 cells. In words: in vitro glucose consumption in HepG2 cells (glucose oxidase method). The data set is classed as cell-based. As to conditions: for Glucose consumption / Glucose consumption increased: HepG2 cells; for Glucose consumption: 24 h, x ± s, n = 8; for Glucose consumption increased: versus blank control group. As to the method:
HepG2 cells with good growth state were selected, and were digested with trypsinase and EDTA (ethylene diamine tetraacetic acid) digestive juice. After digestion was complete, the resulting mixture was formulated with DMEM (Dulbecco's Modified Eagle Medium) having 10% Fetal bovine serum (FBS) into single cell suspension. The cells were seeded into 96 well plates, with 1*10^4 cells per well. Once the cell confluence reached 50%, the medium was changed to high glucose DMEM without serum, starvation cultured for 12 h. The cell supernatant was pipetted, and fresh high glucose DMEM with or without medications was added. The cells were divided into a blank control group, a 20-hydroxy-β-ecdysterone group, and a compound of formula I group. After culturing for 24 h, each group was tested for the change of glucose in the medium by using the glucose oxidase method.

For another data set, the system named is β-TC3 cells. As to conditions: cited from earlier work.
A further data set concerns PI3K and GLUT-4 proteins. As to conditions: 1×10^−5M, P<0.05; cited from earlier work.
Another data set concerns InsR protein. As to conditions: 1×10^−5 mol/L; cited from earlier work.
Another data set has as its system normal mice. In words: level of blood glucose in normal mice. The class given is in vivo, Kunming mouse. As to conditions: for effects in lowering glucose in normal mice: 5 mg/kg; for Blood glucose 3 d after dosing: 5th administration; for Blood glucose 3 d after dosing / Blood glucose 10 d after dosing: fasting 2 h, X ± S; for Blood glucose 10 d after dosing: 19th administration. As to the method: 40 male mice with a body weight of 21±1.8 g (Kunming mouse: SPF grade, male, provided by laboratory animal centre of Sichuan Academy of Chinese Medicine Sciences) were grouped into 4 groups randomly, which are control group, 5 mg/kg of the compound of formula I group, 5 mg/kg of the sodium salt of the compound of formula I group, and 25 mg/kg of Glibenclamide (manufactured by Tianjin Pacific Chemical & Pharmaceutical Co., LTD) group. For the control group, distilled water was given, while for other groups, corresponding medicaments were given. The medicament was intragastrically administered in 0.2 ml/10 g of administration volume twice daily. The administration was continued for 19 times. On the 5th time and 19th time and after thoroughly fasting for 2 h, the blood glucose value for each mouse was tested by a Blood Glucose Meter, and the results were recorded as follows: […]

The nature of data set [1]: dissolution experiment (solubility in water). As to conditions: for amount of water necessarily for completely dissolving this product (1 g): 1 g of product; for solubility in water relative to 20-hydroxy-β-ecdysterone: fold of that of 20-hydroxy-β-ecdysterone. The data set is classed as physicochemical.
Setting [2] is: 5 mg/kg intragastrically twice daily.
The mark [3] stands for this setting: 5 mg/kg intragastrically twice daily, *P<0.05 vs control.
Setting [4] is: 25 mg/kg intragastrically twice daily, *P<0.05 vs control.

Where a name gives a salt, the structure may show the parent alone.

On to `CC(C)(O)CC[C@@H](O)[C@](C)(O)[C@H]1CC[C@@]2(O)C3=CC(=O)[C@@H]4C[C@@H](O)[C@@H](O)C[C@]4(C)[C@H]3CC[C@]12C` [20-hydroxy-β-ecdysterone, reference compound], for which the Glucose consumption in the data set on HepG2 cells (2 × 10^−7 M) came to 1.45 ± 0.28 mM; with HepG2 cells (2 × 10^−8 M), 1.38 ± 0.11 mM; in the data set on HepG2 cells (2 × 10^−9 M), 1.30 ± 0.23 mM. The Glucose consumption increased is recorded as 0.13 mM with HepG2 cells (2 × 10^−7 M) and 0.06 mM with HepG2 cells (2 × 10^−8 M). In the data set on HepG2 cells (concentration 2×10^−7˜2×10^−8 M), the “increase of the glucose consumption in HepG2 cells” value is “below 15%”. For the same compound, the “effect for lowering glucose in HepG2 cells” value in the data set with HepG2 cells (concentration 2×10^−9 M) is given as “no effect”.
As for `CC(C)(O)CC[C@@H](O)[C@](C)(O)[C@H]1CC[C@@]2(O)C3=CC(=O)[C@@H]4C[C@@H](O)[C@@H](O)C[C@]4(C)[C@H]3CC[C@]12C` [ecdysterone], the “stimulating insulin secretion of β-TC3 cells” value in the data set with β-TC3 cells is “does not have the action of stimulating insulin secretion”. The “expression of PI3K and GLUT-4 proteins in insulin resistant HepG2 cells” value with PI3K and GLUT-4 proteins is reported as “increases”. Besides, the “expression of InsR protein in IR HepG2 cells” value with InsR protein is listed as “significantly increases”.
With `CC(C)(O)CC[C@H]1OP(=O)(O)O[C@]1(C)[C@H]1CC[C@@]2(O)C3=CC(=O)[C@@H]4C[C@@H](O)[C@@H](O)C[C@]4(C)C3CC[C@]12C` (some centres unmarked) [the compound of formula I], the Glucose consumption in the data set on HepG2 cells (2 × 10^−7 M) worked out at 6.96 ± 0.23 mM; in the data set with HepG2 cells (2 × 10^−8 M), 6.51 ± 0.12 mM; in the data set with HepG2 cells (2 × 10^−9 M) it was 6.46 ± 0.19 mM. Besides, the values for the Glucose consumption increased in the data set with HepG2 cells (2 × 10^−7 M), in the data set on HepG2 cells (2 × 10^−8 M) and in the data set with HepG2 cells (2 × 10^−9 M) were 5.64 mM, 5.19 mM and 5.14 mM, respectively. The “increase of the glucose consumption in HepG2 cells” value in the data set on HepG2 cells (concentration range 2×10^−7˜2×10^−9 M) is reported as “above 500%”. In addition, the “effects in lowering glucose in normal mice” value in the data set with normal mice is “have the effects in lowering glucose”. Moreover, the “Blood glucose 3 d after dosing” value in the data set on normal mice (setting [2]) was found to be 10.4 ± 1.7 mmol/L. The “Blood glucose 10 d after dosing” value in the data set on normal mice (setting [3]) is reported as 9.1 ± 2.3* mmol/L. The “amount of water necessarily for completely dissolving this product (1 g)” value in data set [1] came to 12 mL. The “solubility in water relative to 20-hydroxy-β-ecdysterone” value in data set [1] came to 10 fold.
For the compound `COc1ccc(Cl)cc1C(=O)NCCc1ccc(S(=O)(=O)NC(=O)NC2CCCCC2)cc1` [Glibenclamide, reference compound], in the data set on normal mice (setting [4]), the “Blood glucose 3 d after dosing” value is listed as 9.3 ± 0.9* mmol/L and the “Blood glucose 10 d after dosing” value is 9.9 ± 0.9* mmol/L.
As for `CC(C)(O)CC[C@H]1OP(=O)(O)O[C@]1(C)[C@H]1CC[C@@]2(O)C3=CC(=O)[C@@H]4C[C@@H](O)[C@@H](O)C[C@]4(C)C3CC[C@]12C` (some centres unmarked) [sodium salt of the compound of formula I], the “effects in lowering glucose in normal mice” value with normal mice is “have the effects in lowering glucose”. Also, the “Blood glucose 3 d after dosing” value with normal mice (setting [2]) was 10.2 ± 1.9 mmol/L. In addition, in the data set with normal mice (setting [3]), the “Blood glucose 10 d after dosing” value is 9.8 ± 1.4* mmol/L. Besides, in data set [1], the “amount of water necessarily for completely dissolving this product (1 g)” value was 2.5 mL and the “solubility in water relative to 20-hydroxy-β-ecdysterone” value is listed as 50 fold.
